{"source": "paper PMC4059234", "about": "“Edc3 Function in Yeast and Mammals Is Modulated by Interaction with NAD-Related Compounds” (G3: Genes|Genomes|Genetics, 2014)", "key": {"hEdc3": {"target": "T1, hEdc3 (Homo sapiens, UniProt Q96F86)", "T1 construct": "gene EDC3; full-length hEdc3", "T1 sequence (Q96F86 1-508)": "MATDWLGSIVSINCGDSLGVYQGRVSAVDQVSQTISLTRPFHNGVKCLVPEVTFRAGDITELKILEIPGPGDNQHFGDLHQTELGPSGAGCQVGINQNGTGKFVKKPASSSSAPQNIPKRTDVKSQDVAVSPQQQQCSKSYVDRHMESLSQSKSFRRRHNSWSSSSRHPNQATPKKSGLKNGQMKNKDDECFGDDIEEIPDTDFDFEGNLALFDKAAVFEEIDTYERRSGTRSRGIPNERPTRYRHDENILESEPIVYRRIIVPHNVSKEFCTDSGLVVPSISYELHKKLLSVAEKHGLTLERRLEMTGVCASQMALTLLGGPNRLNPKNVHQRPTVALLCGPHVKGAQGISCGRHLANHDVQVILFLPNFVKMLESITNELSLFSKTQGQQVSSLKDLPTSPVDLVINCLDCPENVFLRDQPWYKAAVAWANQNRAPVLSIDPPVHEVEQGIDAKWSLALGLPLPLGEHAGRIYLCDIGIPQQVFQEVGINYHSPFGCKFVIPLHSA", "assay": "isothermal titration calorimetry ([…]°, pH […])", "format": "binding"}, "yEdc3": {"target": "T2, yEdc3 (Saccharomyces cerevisiae, UniProt P39998)", "T2 construct": "gene EDC3; full-length recombinant yeast Edc3", "T2 sequence (P39998 1-551)": "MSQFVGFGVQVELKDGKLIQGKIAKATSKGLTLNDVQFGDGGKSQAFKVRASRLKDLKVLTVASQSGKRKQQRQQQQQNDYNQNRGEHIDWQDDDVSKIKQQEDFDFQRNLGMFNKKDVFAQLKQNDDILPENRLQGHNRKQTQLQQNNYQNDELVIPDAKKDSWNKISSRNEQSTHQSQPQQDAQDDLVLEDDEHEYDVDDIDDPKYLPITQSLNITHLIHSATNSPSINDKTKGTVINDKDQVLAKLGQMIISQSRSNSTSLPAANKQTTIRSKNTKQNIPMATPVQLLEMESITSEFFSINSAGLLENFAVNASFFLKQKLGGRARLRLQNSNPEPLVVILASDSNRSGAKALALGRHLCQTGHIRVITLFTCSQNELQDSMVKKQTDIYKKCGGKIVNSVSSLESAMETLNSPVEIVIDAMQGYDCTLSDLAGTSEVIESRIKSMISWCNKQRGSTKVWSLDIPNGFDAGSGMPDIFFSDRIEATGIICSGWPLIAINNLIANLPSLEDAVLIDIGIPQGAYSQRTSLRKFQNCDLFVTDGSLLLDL", "assay": "thin-layer chromatography of […]-NAD incubated with recombinant protein", "format": "biochemical"}}, "data": [{"smiles": "NC(=O)C1=CN([C@@H]2O[C@H](COP(=O)(O)OP(=O)(O)OC[C@H]3O[C@@H](n4cnc5c(N)ncnc54)[C@H](O)[C@@H]3O)[C@@H](O)[C@H]2O)C=CC1", "note": "[NADH]", "values": [{"measurement": "Kd", "setting": "hEdc3", "result": "163 ± 27.4", "unit": "µM"}]}, {"smiles": "NC(=O)c1ccc[n+]([C@@H]2O[C@H](COP(=O)([O-])OP(=O)(O)OC[C@H]3O[C@@H](n4cnc5c(N)ncnc54)[C@H](O)[C@@H]3O)[C@@H](O)[C@H]2O)c1", "note": "[NAD]", "values": [{"measurement": "thin-layer chromatography of 32P-NAD incubated with recombinant protein", "setting": "yEdc3", "result": "Incubation of yeast WT Edc3 with radiolabeled NAD gave rise to two slower migrating species"}]}]}
